We go through two compounds from patent US20250144166A1, “COMPOSITIONS AND METHODS FOR INHIBITING RHO KINASE” (INTERLUDE BIOPHARMA CO., priority 2022, published 2025).

Entries after “also recorded” stand apart in the source; their conditions may differ. Read-outs that look alike come from different tables or passages of the source.

The subject of assay [1] is C2BBe1 cells. The settings on record: 10 mM LA. As to the method:
For barrier function analysis, TEER was measured in monolayers of C2BBe1 cells treated with or without 10 mM LA. TEER was measured using a Chopstick Electrode Set (WPI, LLC, Sarasota, FL) on the basal and apical sides of a monolayer and attached to an Epithelial Volt Ohm Meter2 (WPI, LLC, Sarasota, FL).

The test system of a further assay is C2BBe1 intestinal cells. The conditions noted are these: 10 mM LA; A/R injury; compared to non-treated A/R injured cells. As to the method: Specifically, to evaluate barrier function, transepithelial electrical resistance (TEER) was measured in anoxia/reoxygenation (A/R)-injured C2BBe1 (Caco-2 brush border-expressing Caco-2) cells treated with or without larazotide acetate (LA). Monolayers of C2BBe1 were treated with LA (0.001, 0.1, 1, and 10 mM) and were subjected to anoxia for 2 hours followed by reoxygenation with 21% O2. To generate A/R injury, C2BBe1 cells were placed in a modular incubator chamber (Billups-Rothenberg, San Diego, CA) and flushed with 95% N2/5% CO2 for 5 minutes. The modular chamber was then sealed airtight and placed in an incubator for 2 hours. After 2 hours, the cells were removed from the modular incubator chamber and placed in a 21% O2 normal environment. TEER was measured to assess barrier function during A/R injury and recovery. The TEER was measured using a Chopstick Electrode Set (WPI, LLC, Sarasota, FL) on the basal and apical sides of a monolayer and attached to an Epithelial Volt Ohm Meter2 (WPI, LLC, Sarasota, FL).

In the next assay the test system is tight junction proteins. The conditions noted are these: 10 mM LA. Here is the method:
(§1) Specifically, the distribution of tight junction proteins and actin structure was evaluated using western blots on membrane and cytosol fractions and immunofluorescence microscope analysis. Mem-PER Eukaryotic Membrane Protein Extraction Reagent Kit (Thermo Scientific) was used to fractionate membrane and cytosolic compartment. The extracted proteins were blotted with primary antibodies anti-ZO-1 and anti-occludin (Invitrogen). The cold methanol fixed monolayers were stained with primary antibodies (ZO-1 and occludin) and phalloidin (F-actin) for immunofluorescence microscope analysis. The stained monolayers were examined with an Olympus IX83 Inverted Motorized Microscope with cellSens software (Olympus, Tokyo, Japan). pMLC-2/MLC-2 expression was evaluated using western blot analysis with primary antibodies for pMLC-2 and MLC-2 (CST, Danvers, MA).

For the next assay, the system named is ZO-1, occludin, F-actin. As to the method: as §1
The next assay has as its system C2BBe1. Here is the method: Specifically, monolayers of C2BBe1 were treated with 10 mM LA and were subjected to anoxia for 2 hours followed by reoxygenation with 21% O2 for 1 hour. Next-generation RNA sequencing and biostatistical analyses were employed to assess cellular regulatory pathways.
For assay [2], the system named is C2BBe1 cells. The conditions noted are these: 10 mM LA; regular media; 48 hours. Here is the method: This experiment evaluated the role of LA in proliferation and migration. Specifically, proliferation of non-treated or LA-treated (10 mM) C2BBe1 cells was evaluated by the CCK-8 assay kit (Dojindo Molecular Technologies, Rockville, MD) according to the manufacturer's instructions. 10 mM LA was treated every other day to cells seeded in 96-well culture plates. Viable cells were evaluated with the CCK-8 Assay Kit for five consecutive days. Migration was assessed by seeding C2BBe1 cells in 3 well culture-inserts (ibidi GmbH, Gräfelfing, Germany) and removing the inserts after reaching confluence to create a “wound” in the cell monolayer. 10 mM LA was added to serum-free and regular media to assess migration and proliferation, respectively. Images were captured at 0, 4, 8, 24, and 48 hours with Axio Vert A1 microscope (Carl Zeiss AG, Oberkochen, Germany) and closing of the wound was analyzed by measuring migration distance with ImageJ software.

For assay [3], the system named is C2BBe1 cells. Kind of assay: TEER in A/R-injured C2BBe1 cells with MLCK and ROCK inhibitors with or without LA. It is filed as cell-based, human. The settings on record: 10 mM LA, 1 μM Y-27632 dihydrochloride, 400 μM Peptide 18; A/R injury; FIG. 7. Here is the method: To evaluate barrier function, the TEER was measured in A/R-injured C2BBe1 cells treated with or without LA.

The mark [4] stands for this setting: anoxic cells vs. exposed to LA for 3 h.
Where [5] appears, read: control vs. exposed to LA for 3 h.

As to larazotide acetate, in the assay with C2BBe1 cells [1] (compared to non-treated A/R injured cells at 1 hour after treatment (FIG. 12 legend)), the TEER result was “significantly increased TEER”. Moreover, the TEER result in the assay on C2BBe1 cells [1] (normal conditions, FIG. 12) is on record as “increased TEER”. Also, the TEER entry in the assay with C2BBe1 intestinal cells is “significantly (p<0.001) increases the TEER; also recorded: significantly increased (p<0.001)”. In addition, in the assay with tight junction proteins (1-hour reoxygenation, compared to non-treated anoxic injured cells), the “occludin in the membrane fraction (immunoblotting)” value is recorded as “significantly (p<0.05) increased in the membrane”. Further, the “disruption of tight junction proteins during A/R injury” value with tight junction proteins (FIG. 3) is given as “prevented disruption of tight junction proteins”. The “F-actin structure during A/R injury” value in the assay on ZO-1, occludin, F-actin (10 mM LA, FIG. 4) was “protected”. The “localization of tight junction and cytoskeleton proteins (ZO-1, occludin, F-actin) by immunofluorescence” value with ZO-1, occludin, F-actin (1-hour reoxygenation, versus non-treated anoxic injured cells) is “revealed well-organized tight junction proteins and F-actin”. In the assay on C2BBe1 (LA-treated cells compared to non-treated cells), the “translational processes (GO analysis)” value is recorded as “significantly increased”. Besides, in the assay with C2BBe1 (setting [4]), the “Expression compared to control: AMOTL2” value was “Down”, the “Expression compared to control: EGR1” value is “Down”, the “Expression compared to control: HES1” value is on record as “Down” and the “Expression compared to control: HSPH1” value is “Down”. Moreover, in the assay on C2BBe1 (setting [4]), the “Expression compared to control: JPH2” value is on record as “Up”, the “Expression compared to control: NDRG1” value is given as “Up”, the “Expression compared to control: PFKFB4” value is “Up” and the “Expression compared to control: SAMD5” value was “Down”. In the assay with C2BBe1 (setting [4]), the “Expression compared to control: SLC2A3” value is listed as “Up” and the “Expression compared to control: TNS1” value is on record as “Up”. Also, the “Ras/Rho GTPase-binding and protein serine/threonine kinase activity (GO analysis)” value in the assay on C2BBe1 (cells treated with LA, FIG. 10) is “differentially expressed”. In the assay on C2BBe1 (setting [5]), the “Expression compared to control: CEBPB” value is “Up”, the “Expression compared to control: DDIT4” value is “Up”, the “Expression compared to control: EGR1” value is on record as “Up” and the “Expression compared to control: H1F0” value is on record as “Up”. Further, in the assay with C2BBe1 (setting [5]), the “Expression compared to control: ID2” value is “Up”, the “Expression compared to control: IGFBP4” value is “Down”, the “Expression compared to control: ITGA2” value is on record as “Down” and the “Expression compared to control: MAT2A” value was “Down”. For the same compound, in the assay with C2BBe1 (setting [5]), the “Expression compared to control: SAMD5” value is listed as “Down” and the “Expression compared to control: SYTL2” value is listed as “Down”. Further, the wound healing result with C2BBe1 cells [2] is “significantly increased wound healing”.

For `O=S(=O)(c1cccc2cnccc12)N1CCCNCC1` [Fasudil], the “TEER compared to non-treated A/R injured cells” value in the assay on C2BBe1 cells [3] is “increased TEER”.
